In paper PMC10883716, “Conformational dynamics of adenylate kinase in crystals” (Structural Dynamics, 2024):

Tests used:
[1] = target: T1, AKign (adenylate kinase from Methanotorrus igneus) (Methanotorris igneus, UniProt P43408); experiment: X-ray crystallography, […] A; assay type: binding; settings: 4 mM AMP, 8% PEG 8000, 100 mM magnesium acetate, sodium acetate pH 4.5, 20 °C; two per protomer, in AMP and ATP sites
T1 construct: gene adkA; full length, residues 1-192; synthetic gene in pET21a, C-terminal His6 tag kept (disordered, unbuilt); E. coli BL21(DE3); homotrimer
T1 sequence (P43408 whole entry, the tested form may be a part): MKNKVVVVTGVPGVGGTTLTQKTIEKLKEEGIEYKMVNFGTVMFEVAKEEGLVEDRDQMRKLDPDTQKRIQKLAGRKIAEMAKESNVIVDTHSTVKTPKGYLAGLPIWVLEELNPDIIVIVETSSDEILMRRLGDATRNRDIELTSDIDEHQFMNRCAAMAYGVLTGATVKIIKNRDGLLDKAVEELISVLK

[2] = target: T1, AKign (adenylate kinase from Methanotorrus igneus); experiment: X-ray crystallography, […] A; assay type: binding; settings: 4 mM Ap5A, 17% PEG 3350, 250 mM sodium malonate, 20 °C; one per protomer, spans AMP and ATP sites

Structure (SMILES)	X-ray crystallography, 2.40 A [1]	X-ray crystallography, 2.25 A [2]
Nc1ncnc2c1ncn2[C@@H]1O[C@H](COP(=O)(O)O)[C@@H](O)[C@H]1O [AMP]	AMP-bound AKign structure, which comprises two bound AMP molecules per AKign protomer	
Nc1ncnc2c1ncn2[C@@H]1O[C@H](COP(=O)(O)OP(=O)(O)OP(=O)(O)OP(=O)(O)OP(=O)(O)OC[C@H]2O[C@@H](n3cnc4c(N)ncnc43)[C@H](O)[C@@H]2O)[C@@H](O)[C@H]1O [Ap5A, P^1,P^5-di(adenosine 5′)-pentaphosphate]		We also solved the AKign structure with the bound inhibitor, Ap5A.
